Measurements reported in US20240158446A1, “CYCLIC COMPOUND HAVING SELECTIVE INHIBITORY ACTION ON KRAS OVER HRAS AND NRAS” (CHUGAI SEIYAKU KABUSHIKI KAISHA, priority 2021, published 2024).
Like-named read-outs stand apart in the source and are kept apart here. Where a SMILES comes first, the peptide text is derived from it. Bridges are numbered along the chain shown (N, C = ends). [ ]: non-standard residue; d: D form. The star is where a group is joined. hPhe(3,5-F2-4-CF3) = N[C@@H](CCc1cc(F)c(C(F)(F)F)c(F)c1)C(=O)O; hPhe(3-Cl-4-CF3) = N[C@@H](CCc1ccc(C(F)(F)F)c(Cl)c1)C(=O)O; NPrPhe(4-CF3) = CCCN[C@@H](Cc1ccc(C(F)(F)F)cc1)C(=O)O; NMeAbu(4,4,4-F3) = CN[C@@H](CC(F)(F)F)C(=O)O; NMeGly(cPent) = CN[C@H](C(=O)O)C1CCCC1; Hyp = O=C(O)[C@@H]1C[C@@H](O)CN1; NMeD = CN[C@@H](CC(=O)O)C(=O)O; NMeL = CN[C@@H](CC(C)C)C(=O)O; Morpholide = C1CN(*)CCO1; Ac5c = NC1(C(=O)O)CCCC1; Aze = O=C(O)[C@@H]1CCN1; NPrGly = CCCNCC(=O)O; Sar = CNCC(=O)O

Assays:
[1] = target: GDP-bound NRAS wild-type protein (Homo sapiens, UniProt P01111); assay: Binding to NRAS by surface plasmon resonance (SPR), Single Cycle Kinetics; details: for NRAS/KRAS (ratio of KD value for NRAS to KD value for KRAS) / NRAS/KRAS (ratio of KD value with respect to NRAS to KD value with respect to KRAS): SPR, GDP-bound NRAS wild-type protein vs GDP-bound KRAS wild-type protein
[2] = target: GDP-bound KRAS wild-type protein (Homo sapiens, UniProt P01116); assay: Binding to KRAS by surface plasmon resonance (SPR), Single Cycle Kinetics; details: GDP-bound KRAS wild-type protein, read-out: KRAS KD
[3] = target: GDP-bound HRAS wild-type protein (Homo sapiens, UniProt P01112); assay: Binding to HRAS by surface plasmon resonance (SPR), Single Cycle Kinetics; details: for HRAS/KRAS (ratio of KD value for HRAS to KD value for KRAS) / HRAS/KRAS (ratio of KD value with respect to HRAS to KD value with respect to KRAS): SPR, GDP-bound HRAS wild-type protein vs GDP-bound KRAS wild-type protein
[4] = SPR Single Cycle Kinetics, 1:1 binding model

Sequence of GDP-bound NRAS wild-type protein (P01111 whole entry): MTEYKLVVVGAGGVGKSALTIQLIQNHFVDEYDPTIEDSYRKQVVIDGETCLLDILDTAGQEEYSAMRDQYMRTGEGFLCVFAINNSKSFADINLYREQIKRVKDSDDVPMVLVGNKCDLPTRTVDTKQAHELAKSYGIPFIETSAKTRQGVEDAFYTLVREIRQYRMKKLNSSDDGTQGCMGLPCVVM
Sequence of GDP-bound KRAS wild-type protein (P01116 whole entry): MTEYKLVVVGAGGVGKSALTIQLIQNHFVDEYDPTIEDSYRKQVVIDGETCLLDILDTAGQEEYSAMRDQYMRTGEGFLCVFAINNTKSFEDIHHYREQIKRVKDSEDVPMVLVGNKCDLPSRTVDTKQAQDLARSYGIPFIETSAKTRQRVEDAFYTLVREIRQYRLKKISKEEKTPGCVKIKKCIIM
Sequence of GDP-bound HRAS wild-type protein (P01112 whole entry): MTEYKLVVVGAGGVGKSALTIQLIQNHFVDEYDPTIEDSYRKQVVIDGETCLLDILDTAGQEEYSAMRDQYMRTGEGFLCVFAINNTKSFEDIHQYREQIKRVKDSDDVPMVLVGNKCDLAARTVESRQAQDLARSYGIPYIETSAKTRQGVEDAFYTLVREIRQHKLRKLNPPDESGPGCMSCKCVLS

Structure (SMILES)	Kd [2, 4]	Kd ([2]; SPR, Single Cycle Kinetics)	NRAS/KRAS (ratio of KD value for NRAS to KD value for KRAS) [1]	HRAS/KRAS (ratio of KD value for HRAS to KD value for KRAS) [3]	NRAS/KRAS (ratio of KD value with respect to NRAS to KD value with respect to KRAS) [1]	HRAS/KRAS (ratio of KD value with respect to HRAS to KD value with respect to KRAS) [3]	NRAS/KRAS (ratio of KD value with respect to GDP-bound NRAS wild-type protein to KD value with respect to KRAS) ([1]; SPR KD ratio NRAS/KRAS, class symbols)	HRAS/KRAS (ratio of KD value with respect to GDP-bound HRAS wild-type protein to KD value with respect to KRAS) ([3]; SPR KD ratio HRAS/KRAS, class symbols)
CCO[C@@H]1C[C@H]2C(=O)NC3(CCC3)C(=O)N(C)[C@@H](C3CCCC3)C(=O)N(C)[C@H](C(=O)N3CCOCC3)CC(=O)N(C)[C@@H](Cc3ccccc3F)C(=O)N[C@@H]([C@@H](C)CC)C(=O)N(C)CC(=O)N(C)[C@H]3CCCCCN(C3=O)[C@@H](Cc3ccc(C(F)(F)F)cc3)C(=O)N(C)CC(=O)N[C@@H](CCc3cc(F)c(C(F)(F)F)c(F)c3)C(=O)N2C1 [PP0926]		2400 pM	B (a compound having 3 or more and less than 10 is denoted as B)	B (a compound having 3 or more and less than 10 is denoted as B)				
CCCN1CC(=O)N(C)CC(=O)N(CCC)[C@@H](Cc2ccc(C(F)(F)F)cc2)C(=O)N(C)CC(=O)N[C@@H](CCc2ccc(C(F)(F)F)c(Cl)c2)C(=O)N2CCC[C@H]2C(=O)NC2(CCCC2)C(=O)N(C)[C@@H](C2CCCC2)C(=O)N(C)[C@H](C(=O)N2CCOCC2)CC(=O)N(C)[C@@H](CC(C)C)C(=O)N[C@@H]([C@@H](C)CC)C1=O [PP0253] ([NMeL]I[NPrGly][Sar][NPrPhe(4-CF3)][Sar][hPhe(3-Cl-4-CF3)]P[Ac5c][NMeGly(cPent)][NMeD]-Morpholide; lactam N-11)	550 pM		B (a compound having 3 or more and less than 10 is denoted as B)	B (a compound having 3 or more and less than 10 is denoted as B)				
CC[C@H](C)[C@@H]1NC(=O)[C@H](CC(C)C)N(C)C(=O)C[C@@H](C(=O)N2CCOCC2)N(C)C(=O)[C@H](C2CCCC2)N(CC)C(=O)C2(CCCC2)NC(=O)[C@@H]2CCCN2C(=O)[C@H](CCc2cc(F)c(C(F)(F)F)c(F)c2)NC(=O)CN(C)C(=O)[C@H](Cc2ccc(C(F)(F)F)cc2)N2CCCC[C@@H](C2=O)N(C)C(=O)CN(C)C1=O [PP0538]	670 pM				B (a compound having 3 or more and less than 10 is denoted as B)	B (a compound having 3 or more and less than 10 is denoted as B)		
C#CCN1CC(=O)N(C)[C@H]2C/C=C\CCN(C2=O)[C@@H](Cc2ccc(C)cc2)C(=O)N(C)CC(=O)N[C@@H](CCc2cc(F)c(C(F)(F)F)c(F)c2)C(=O)N2C[C@H](OCC)C[C@H]2C(=O)NC2(CC(C)(C)C2)C(=O)N(C)[C@@H](C2CCCC2)C(=O)N(C)[C@H](C(=O)N(C)C)CC(=O)N(C)[C@@H](CCC)C(=O)N[C@@H]([C@@H](C)CC)C1=O [PP2095]		150 pM	A (a compound having 10 or more and less than 20 is denoted as A)	A (a compound having 10 or more and less than 20 is denoted as A)				
CCC[C@H]1C(=O)N[C@@H]([C@@H](C)CC)C(=O)N(C2CC2)CC(=O)N(C)[C@H]2C/C=C\CCN(C2=O)[C@@H](Cc2ccc(C(F)(F)F)cc2)C(=O)N(C)CC(=O)N[C@@H](CCc2ccc(C(F)(F)F)c(OC)c2)C(=O)N2C[C@H](OCC)C[C@H]2C(=O)N(C)C2(CCC2)C(=O)N(C)[C@@H](C(CC)CC)C(=O)N(C)[C@H](C(=O)N(C)C)CC(=O)N1C [PP2313]		490 pM	AA (a compound having 20 or more is denoted as AA)	A (a compound having 10 or more and less than 20 is denoted as A)				
CCC[C@H]1C(=O)N[C@@H]([C@@H](C)CC)C(=O)N(C)CC(=O)N(C)[C@H]2C/C=C\CCN(C2=O)[C@@H](Cc2ccc(C(F)(F)F)cc2)C(=O)N(C)CC(=O)N[C@@H](CCc2ccc3c(C)cn(C)c3c2)C(=O)N2C[C@H](OCC)C[C@H]2C(=O)NC2(CC(C)(C)C2)C(=O)N(C)[C@@H](C2CCCC2)C(=O)N(C)[C@H](C(=O)N(C)C)CC(=O)N1C [PP2897]	560 pM						A (a compound having 10 or more and less than 20 is denoted as A)	B (a compound having 3 or more and less than 10 is denoted as B)
CC[C@H](C)[C@@H]1NC(=O)[C@H](COC)N(C)C(=O)C[C@@H](C(=O)N2CCOCC2)N(C)C(=O)[C@H](C2CCCC2)N(C)C(=O)C2(CCC2)NC(=O)[C@@H]2C[C@@H](OCC(C)C)CN2C(=O)[C@H](CCc2cc(F)c(C(F)(F)F)c(F)c2)NC(=O)CN(C)C(=O)[C@H](Cc2ccc(C(F)(F)F)cc2)N2CCCCC[C@@H](C2=O)N(C)C(=O)CN(C)C1=O [PP0839]		1100 pM	B (a compound having 3 or more and less than 10 is denoted as B)	B (a compound having 3 or more and less than 10 is denoted as B)				
CCCN1C(=O)CN(C)C(=O)CN(C)C(=O)[C@H]([C@@H](C)CC)NC(=O)[C@H](CC(C)C)N(C)C(=O)C[C@@H](C(=O)N(C)C)N(C)C(=O)[C@H](CC(F)(F)F)N(C)C(=O)C2(CCCC2)NC(=O)[C@@H]2CCCN2C(=O)[C@H](CCc2cc(F)c(C(F)(F)F)c(F)c2)NC(=O)CN(C)C(=O)[C@@H]1Cc1ccc(C(F)(F)F)cc1 [PP0746] ([NMeL]I[Sar][Sar][NPrPhe(4-CF3)][Sar][hPhe(3,5-F2-4-CF3)]P[Ac5c][NMeAbu(4,4,4-F3)][NMeD]-NMe2; lactam N-11)	430 pM				B (a compound having 3 or more and less than 10 is denoted as B)	C (A compound having a KD ratio of 0.1 or more and less than 3 is denoted as C)		

Continued, in another order:

Kd [2, 4]	Kd ([2]; SPR, Single Cycle Kinetics)	Structure (SMILES)	NRAS/KRAS (ratio of KD value for NRAS to KD value for KRAS) [1]	HRAS/KRAS (ratio of KD value for HRAS to KD value for KRAS) [3]	NRAS/KRAS (ratio of KD value with respect to NRAS to KD value with respect to KRAS) [1]	HRAS/KRAS (ratio of KD value with respect to HRAS to KD value with respect to KRAS) [3]	NRAS/KRAS (ratio of KD value with respect to GDP-bound NRAS wild-type protein to KD value with respect to KRAS) ([1]; SPR KD ratio NRAS/KRAS, class symbols)	HRAS/KRAS (ratio of KD value with respect to GDP-bound HRAS wild-type protein to KD value with respect to KRAS) ([3]; SPR KD ratio HRAS/KRAS, class symbols)
54 pM		CC[C@H](C)[C@@H]1NC(=O)[C@H](CC(C)C)N(C)C(=O)C[C@@H](C(=O)N2CCOCC2)N(C)C(=O)[C@H](C2CCCC2)N(C)C(=O)C2(CCCC2)NC(=O)[C@@H]2CCCN2C(=O)[C@H](CCc2ccc(C(F)(F)F)c(Cl)c2)NC(=O)CN(C)C(=O)[C@H](Cc2ccc(C)cc2)N2CCCC[C@@H](C2=O)N(C)C(=O)CN(C)C1=O [PP0316]	C (A compound having a KD ratio of 0.1 or more and less than 3 is denoted as C)	B (a compound having 3 or more and less than 10 is denoted as B)				
1300 pM		CCO[C@@H]1C[C@H]2C(=O)NC3(CC=CC3)C(=O)N(C)[C@@H](C3CCCC3)C(=O)N(C)[C@H](C(=O)N3CCOCC3)CC(=O)N(C)[C@@H](CC(C)C)C(=O)N[C@@H]([C@@H](C)CC)C(=O)N(C)CC(=O)N(C)[C@H]3CCCCCN(C3=O)[C@@H](Cc3ccc(C(F)(F)F)cc3)C(=O)N(C)CC(=O)N[C@@H](CCc3cc(F)c(C(F)(F)F)c(F)c3)C(=O)N2C1 [PP0727]			B (a compound having 3 or more and less than 10 is denoted as B)	B (a compound having 3 or more and less than 10 is denoted as B)		
11000 pM		CC[C@H](C)[C@@H]1NC(=O)[C@H](CC(C)C)N(C)C(=O)C[C@@H](C(=O)N(C)C)N(C)C(=O)[C@H](C2CCCC2)N(C)C(=O)C2(CCCC2)NC(=O)[C@@H]2CCCN2C(=O)[C@H](CCc2ccc(C(F)(F)F)c(Cl)c2)NC(=O)CN(C)C(=O)[C@H](Cc2ccc(C(F)(F)F)cc2)N2CC/C=C\COC[C@@H](C2=O)N(C)C(=O)CN(C)C1=O [PP0622]			B (a compound having 3 or more and less than 10 is denoted as B)	B (a compound having 3 or more and less than 10 is denoted as B)		
	280 pM	CCO[C@@H]1C[C@H]2C(=O)NC3(CCC3)C(=O)N(C)[C@@H](C3CCCC3)C(=O)N(C)[C@H](C(=O)N3C[C@@H](C)O[C@@H](C)C3)CC(=O)N(C)[C@@H](CC(C)C)C(=O)N[C@@H]([C@@H](C)CC)C(=O)N(C)CC(=O)N(C)[C@H]3CCCCCN(C3=O)[C@@H](Cc3ccc(F)cc3)C(=O)N(C)CC(=O)N[C@@H](CCc3ccc(C(F)(F)F)c(Cl)c3)C(=O)N2C1 [PP1153]	B (a compound having 3 or more and less than 10 is denoted as B)	B (a compound having 3 or more and less than 10 is denoted as B)				
20 pM		CCO[C@@H]1C[C@H]2C(=O)NC3(CCC3)C(=O)N(C)[C@@H](C3CCCC3)C(=O)N(C)[C@H](C(=O)N3CCOCC3)CC(=O)N(C)[C@@H](COC)C(=O)N[C@@H]([C@@H](C)CC)C(=O)N(C)CC(=O)N(C)[C@H]3CCCCN(C3=O)[C@@H](Cc3ccc(C(F)(F)F)cc3)C(=O)N(C)CC(=O)N[C@@H](CCc3cc(F)c(C(F)(F)F)c(F)c3)C(=O)N2C1 [PP0719]			C (A compound having a KD ratio of 0.1 or more and less than 3 is denoted as C)	B (a compound having 3 or more and less than 10 is denoted as B)		
150 pM		CCCN1C(=O)CN(C)C(=O)[C@@H]2CCN2C(=O)[C@H]([C@@H](C)CC)NC(=O)[C@H](CC(C)C)N(C)C(=O)C[C@@H](C(=O)N(C)C)N(C)C(=O)[C@H](C2CCCC2)N(C)C(=O)C2(CCCC2)NC(=O)[C@@H]2C[C@@H](OCC)CN2C(=O)[C@H](CCc2ccc(C(F)(F)F)c(Cl)c2)NC(=O)CN(C)C(=O)[C@@H]1Cc1ccc(C(F)(F)F)cc1 [PP0433] ([NMeL]I[Aze][Sar][NPrPhe(4-CF3)][Sar][hPhe(3-Cl-4-CF3)][Hyp](Et)[Ac5c][NMeGly(cPent)][NMeD]-NMe2; lactam N-11)			B (a compound having 3 or more and less than 10 is denoted as B)	B (a compound having 3 or more and less than 10 is denoted as B)		
